The values that follow come from the supplement of paper PMC10307832.

Experiment in all cases: relative viability (nuclei count vs DMSO), 5 days (fraction); higher = more cells survive
Compound in experiment [1]: C1/C(=C\C2=CC=CS2)/C(=O)/C(=C/C3=CC=CS3)/C1 + CS(=O)(=O)CCNCc1ccc(-c2ccc3ncnc(Nc4ccc(OCc5cccc(F)c5)c(Cl)c4)c3c2)o1 [Lapatinib] (partner 2 µM)
The procedure, abridged:
(§1)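 Lung cancer cell lines in 1536-well plates were dosed by pin tool the day after seeding, either with one drug alone or with a fixed anchor-drug dose plus five library-drug doses (not always all listed) in √10 steps. After 5 days, cells were fixed and their nuclei stained in one step (final 0.05% Triton X-100, 1% formaldehyde, 1 ug/ml Hoechst), then counted on 4× images. Relative viability is the nuclei count in treated wells divided by that in vehicle wells. Values are medians of duplicate plates.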

Compound in experiment [2]: C[C@]12O[C@H](C[C@]1(O)CO)n1c3ccccc3c3c4c(c5c6ccccc6n2c5c31)CNC4=O [Lestaurtinib] + Cc1cc(Nc2cc(N3CCN(C)CC3)nc(Sc3ccc(NC(=O)C4CC4)cc3)n2)n[nH]1 [Tozasertib] (partner 0.1 µM)
Summed up:
as §1

Compound in experiment [3]: C1/C(=C\C2=CC=CS2)/C(=O)/C(=C/C3=CC=CS3)/C1 + Nc1nc2[nH]cc(CCc3ccc(C(=O)N[C@@H](CCC(=O)O)C(=O)O)cc3)c2c(=O)[nH]1 [Pemetrexed] (partner 0.2 µM)
Summed up: as §1

Compound in the experiment “TPCA-1 + Trametinib”: C1=CC(=CC=C1C2=CC(=C(S2)NC(=O)N)C(=O)N)F [TPCA-1] + CC(=O)Nc1cccc(-n2c(=O)n(C3CC3)c(=O)c3c(Nc4ccc(I)cc4F)n(C)c(=O)c(C)c32)c1 [Trametinib] (partner 0.02 µM)
The procedure, abridged:
as §1

In the case of UMC-11, the relative viability in experiment [1] (first compound 0.2 µM) was determined as 0.88; in experiment [1] (first compound 0.6325 µM), 0.98; in experiment [1] (first compound 2 µM) it was 1.19; in experiment [1] (first compound 6.325 µM), 0.628; in experiment [1] (first compound 20 µM), 1.1; in experiment [2] (first compound 0.005 µM) it was 0.21. In addition, the relative viability in experiment [2] (first compound 0.01581 µM) was found to be 0.206; in experiment [2] (first compound 0.05 µM), 0.217; in experiment [2] (first compound 0.1581 µM) it was 0.18; in experiment [2] (first compound 0.5 µM) it was 0.179; in experiment [3] (first compound 0.2 µM), 0.816; in experiment [3] (first compound 0.6325 µM), 0.817. The relative viability in experiment [3] (first compound 2 µM) is 0.789; in experiment [3] (first compound 6.325 µM) it was 0.563; in experiment [3] (first compound 20 µM) it was 0.824; with TPCA-1 + Trametinib (first compound 0.04 µM), 0.648; in the experiment with TPCA-1 + Trametinib (first compound 0.1265 µM) it was 0.612; with TPCA-1 + Trametinib (first compound 0.4 µM), 0.804. The relative viability with TPCA-1 + Trametinib (first compound 1.265 µM) turned out to be 0.831; with TPCA-1 + Trametinib (first compound 4 µM) it was 0.152.
